Experimental findings from US9701689B2, “Substituted pyridines and pyridazines as CCR10 receptor inhibitors” (KYOWA HAKKO KIRIN CO., LTD., priority 2012, dated 2017) are described below.

A value given as a limit tells only on which side of the number the result lay.

For the assay, the target named is T1, human CCR10 (Homo sapiens, UniProt P46092).
T1 construct: expressed in transfected cells; host or cells: KJMGER8 cells (Namalwa cell-derived line), beta-estradiol-induced; hCCR10G16 cells
T1 sequence (P46092 1-362): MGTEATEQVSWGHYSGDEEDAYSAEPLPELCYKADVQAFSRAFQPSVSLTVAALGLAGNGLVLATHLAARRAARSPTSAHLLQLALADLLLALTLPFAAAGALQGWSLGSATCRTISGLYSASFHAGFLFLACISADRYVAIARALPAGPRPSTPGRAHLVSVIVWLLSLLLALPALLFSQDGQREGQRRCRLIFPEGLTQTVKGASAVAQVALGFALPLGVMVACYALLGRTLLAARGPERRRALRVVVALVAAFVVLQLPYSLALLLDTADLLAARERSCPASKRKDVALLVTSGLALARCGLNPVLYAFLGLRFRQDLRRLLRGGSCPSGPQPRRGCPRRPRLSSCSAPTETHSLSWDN
The experiment in a line: CCR10 antagonistic effect: calcium assay of human CCR10 (CTACK-induced increase of intracellular calcium in hCCR10G16 cells). The format is cell-based. As to conditions: at a concentration of not more than 1000 nmol/L; human CCR10-expressing hCCR10G16 cells, 300 nmol/L CTACK added; read-out: inhibition of increase in the calcium ion concentration. How it is done: [Experimental Example 1] CCR10 Antagonistic Effect
(1) Preparation of Human CCR10-Inducible Expression Plasmid
A CCR10-inducible expression plasmid was prepared according to a known method [Analytical Biochemistry, 2006, vol. 400, page 163]. A DNA encoding human CCR10 was obtained by PCR. Using human chromosome DNA (100 ng; manufactured by Clontech) as a template, synthetic DNA having the sequences depicted in SEQ ID NOs: 1 and 2 as a human CCR10 cDNA specific primer, and Pyrobest DNA Polymerase (manufactured by TAKARA SHUZO CO. LTD.) as an enzyme, a DNA encoding human CCR10 was obtained by PCR. As a buffer for PCR, the buffer attached to the enzyme to be used, which was diluted 10-fold with deionized water, was used. Using Thermal Cycler DNA Engine (manufactured by MJ Research), PCR was performed by 35 cycles of reactions composed of an incubation at 94° C. for 30 sec, at an anneal temperature of 58° C. for 30 sec, and at 72° C. for 1 min after treating at 90° C. for 2 min.
The amplified PCR fragment was cleaved with HindIII and NotI, then a human CCR10 DNA fragment was recovered by the agarose gel electrophoresis method. The fragment was incorporated between the corresponding restriction enzyme sites (HindIII-NotI) of an inducible expression vector to construct a human CCR10-inducible expression plasmid.
Using a primer specific to the sequence of plasmid (synthetic DNA having the sequences shown in SEQ ID NOs: 3 and 4), the sequence of human CCR10 DNA region was determined. For the determination of the base sequence, DNA Sequencer 377 (manufactured by Perkin Elmer. Co.) and a reaction kit (ABI Prism (registered trade mark) BigDye (registered trade mark) Terminator Cycle Sequencing Ready Reaction kit: manufactured by Applied Biosystems) were used. The sequence of human CCR10 DNA was identical with the sequence (NM 016602) registered in GenBank.
(2) Preparation of Human CCR10 Expressing Cell for Calcium Assay
Cells for detecting signals from human CCR10 in calcium assay were prepared. According to a known method [Analytical.Biochemistry (Analy Biochem), 2006, vol. 400, page 163], human CCR10-inducible expressing cells whose host cell is KJMGER8 cell (Namalwa cell-derived cell line) were prepared. Human CCR10-inducible expression plasmid produced above and Gα16 expression plasmid were co-transfected into the KJMGER8 cells by the electroporation method [Cytotechnology, 1990, vol. 3, page 133], whereby the signals from human CCR10 could be detected by calcium assay (hereinafter to be referred to as hCCR10G16 cell). A Ga16 expression plasmid was produced by incorporating human Ga16 DNA into expression vector pAMoh (WO 03/087366). Expression of human CCR10 was induced by cultivating hCCR10G16 cells in the presence of 10 nmol/L β-estradiol (manufactured by Sigma Ltd.) for 24 hr.
(3) Calcium Assay of Human CCR10
Cells expressing human CCR10 induced by the above-mentioned method were suspended in RPMI1640 medium (manufactured by Invitrogen), and adjusted to a cell density of 2×10^6 cells/mL. The cells were blended with an equivalent volume of a loading buffer prepared according to the attached protocol of Fluo-3 calcium assay kit (manufactured by Molecular Devices Corporation), and incubated at 37° C. for several dozen minutes. This mixture was dispensed to a 384 well clear-bottom plate (manufactured by Corning Incorporated) at 40 μL/well. To this plate was added a solution of the test compound in dimethyl sulfoxide (DMSO), which was diluted 37-fold with RPMI1640 medium, at 5 μL/well, and the mixture was incubated at 37° C. for 30 min. 300 nmol/L human recombinant CTACK (manufactured by R&D Systems, Inc.) diluted with RPMI1640 medium containing 1 w/v % bovine serum albumin (manufactured by Sigma Ltd.) was added at 5 μL/well and, variation of intracellular calcium ion concentration for about 5 min after the addition was measured by a screening apparatus (FDSS; manufactured by Hamamatsu Photonics K.K.). […]
Background: Calcium flux is commonly read through the fluorescence of an indicator in the cells.

For `Cc1cc(F)ccc1Nc1cc(S(=O)(=O)O)ncc1C(=O)N1CCC(c2ccc(F)cc2)CC1` [Compound 1, 4-(4-fluoro-2-methylphenylamino)-5-[4-(4-fluorophenyl)piperidine-1-carbonyl]pyridine-2-sulfonic acid], the inhibition at up to 1 µM was at least 50%.
Then `Cc1cc(F)ccc1Nc1cc(S(N)(=O)=O)ncc1C(=O)N1CCC(c2ccc(F)cc2)CC1` [Compound 2, 4-(4-fluoro-2-methylphenylamino)-5-[4-(4-fluorophenyl)piperidine-1-carbonyl]pyridine-2-sulfonamide], with at least 50%; and `NS(=O)(=O)c1cc(Nc2ccc3c(c2)COC3)c(C(=O)N2CCC(c3ccc(F)cc3)CC2)cn1` [Compound 3, 4-(1,3-dihydroisobenzofuran-5-ylamino)-5-[4-(4-fluorophenyl)piperidine-1-carbonyl]pyridine-2-sulfonamide], with at least 50%; and `NS(=O)(=O)c1cc(Nc2ccc3ncccc3c2)c(C(=O)N2CCC(c3ccc(F)cc3)CC2)cn1` [Compound 4, 5-[4-(4-fluorophenyl)piperidine-1-carbonyl]-4-(quinolin-6-ylamino)pyridine-2-sulfonamide], with at least 50%.
Then `Cc1cc(F)ccc1Nc1cc(S(=O)(=O)NC2CC2)ncc1C(=O)N1CCC(c2ccc(F)cc2)CC1` [Compound 5, N-cyclopropyl-4-(4-fluoro-2-methylphenylamino)-5-[4-(4-fluorophenyl)piperidine-1-carbonyl]pyridine-2-sulfonamide], with at least 50%; and `CC(=O)NC1CCN(S(=O)(=O)c2cc(Nc3ccc(F)cc3C)c(C(=O)N3CCC(c4ccc(F)cc4)CC3)cn2)C1` (centres unmarked) [Compound 7, N-{1-{4-(4-fluoro-2-methylphenylamino)-5-[4-(4-fluorophenyl)piperidine-1-carbonyl]pyridin-2-ylsulfonyl}pyrrolidin-3-yl}acetamide], with at least 50%.
Turning to `Cc1cc(F)ccc1Nc1cc(S(=O)(=O)NC2CCN(C)C2=O)ncc1C(=O)N1CCC(c2ccc(F)cc2)CC1` (centres unmarked) [Compound 8, 4-(4-fluoro-2-methylphenylamino)-5-[4-(4-fluorophenyl)piperidine-1-carbonyl]-N-(1-methyl-2-oxopyrrolidin-3-yl)pyridine-2-sulfonamide], the inhibition at up to 1 µM is at least 50%.
As for `Cc1cc(F)ccc1Nc1cc(S(=O)(=O)N2CCNCC2)ncc1C(=O)N1CCC(c2ccc(F)cc2)CC1` [Compound 9, [4-(4-fluoro-2-methylphenylamino)-6-(piperazin-1-ylsulfonyl)pyridin-3-yl][4-(4-fluorophenyl)piperidin-1-yl]methanone], the figure is at least 50%.
As for `Cc1cc(F)ccc1Nc1cc(S(=O)(=O)N2CCC(N)CC2)ncc1C(=O)N1CCC(c2ccc(F)cc2)CC1` [Compound 10, [6-(4-aminopiperidin-1-ylsulfonyl)-4-(4-fluoro-2-methylphenylamino)pyridin-3-yl][4-(4-fluorophenyl)piperidin-1-yl]methanone], the figure is at least 50%; as for `Cc1cc(NS(=O)(=O)c2cc(Nc3ccc(F)cc3C)c(C(=O)N3CCC(c4ccc(F)cc4)CC3)cn2)on1` [Compound 12, 4-(4-fluoro-2-methylphenylamino)-5-[4-(4-fluorophenyl)piperidine-1-carbonyl]-N-(3-methylisoxazol-5-yl)pyridine-2-sulfonamide], at least 50%; as for `CC(=O)NS(=O)(=O)c1cc(Nc2ccc(F)cc2C)c(C(=O)N2CCC(c3ccc(F)cc3)CC2)cn1` [Compound 13, N-{4-(4-fluoro-2-methylphenylamino)-5-[4-(4-fluorophenyl)piperidine-1-carbonyl]pyridine-2-sulfonyl}acetamide], at least 50%.
Then `Cc1cc(F)ccc1Nc1cc(S(=O)(=O)NC(=O)C2CC2(F)F)ncc1C(=O)N1CCC(c2ccc(F)cc2)CC1` (centres unmarked) [Compound 14, 2,2-difluoro-N-{4-(4-fluoro-2-methylphenylamino)-5-[4-(4-fluorophenyl)piperidine-1-carbonyl]pyridine-2-sulfonyl}cyclopropanecarboxamide], with at least 50%.
With `NS(=O)(=O)c1cc(NCc2ccccc2)c(C(=O)N2CCC(c3ccc(F)cc3)CC2)cn1` [Compound 15, 4-(benzylamino)-5-[4-(4-fluorophenyl)piperidine-1-carbonyl]pyridine-2-sulfonamide], the inhibition at up to 1 µM was at least 50%.
Consider `CCCNC(=O)NS(=O)(=O)c1cc(NCc2ccccc2)c(C(=O)N2CCC(c3ccc(F)cc3)CC2)cn1` [Compound 16, 4-(benzylamino)-5-[4-(4-fluorophenyl)piperidine-1-carbonyl]-N-(propylcarbamoyl)pyridine-2-sulfonamide], for which the inhibition at up to 1 µM was at least 50%.
On to `Cc1cc(Nc2cc(S(N)(=O)=O)ncc2C(=O)N2CCC(c3ccc(F)cc3)CC2)c(C)cc1Cl` [Compound 17, 4-(4-chloro-2,5-dimethylphenylamino)-5-[4-(4-fluorophenyl)piperidine-1-carbonyl]pyridine-2-sulfonamide], for which the inhibition at up to 1 µM is at least 50%.
As for `Cc1cc(Nc2cc(S(=O)(=O)NC(=O)NC(C)C)ncc2C(=O)N2CCC(c3ccc(F)cc3)CC2)c(C)cc1Cl` [Compound 18, 4-(4-chloro-2,5-dimethylphenylamino)-5-[4-(4-fluorophenyl)piperidine-1-carbonyl]-N-(isopropylcarbamoyl)pyridine-2-sulfonamide], the figure is at least 50%; as for `CCOC(=O)NS(=O)(=O)c1cc(Nc2cc(C)c(Cl)cc2C)c(C(=O)N2CCC(c3ccc(F)cc3)CC2)cn1` [Compound 19, ethyl 4-(4-chloro-2,5-dimethylphenylamino)-5-[4-(4-fluorophenyl)piperidine-1-carbonyl]pyridin-2-ylsulfonylcarbamate], at least 50%.
Then `Cc1cc(Cl)ccc1Nc1cc(S(N)(=O)=O)ncc1C(=O)N1CCC(c2ccc(F)cc2)CC1` [Compound 20, 4-(4-chloro-2-methylphenylamino)-5-[4-(4-fluorophenyl)piperidine-1-carbonyl]pyridine-2-sulfonamide], with at least 50%; and `CCNC(=O)N(C)S(=O)(=O)c1cc(Nc2ccc(F)cc2C)c(C(=O)N2CCC(c3ccc(F)cc3)CC2)cn1` [Compound 23, N-(ethylcarbamoyl)-4-(4-fluoro-2-methylphenylamino)-5-[4-(4-fluorophenyl)piperidine-1-carbonyl]-N-methylpyridine-2-sulfonamide], with at least 50%; and `Cc1cc(F)ccc1Nc1c(C(=O)N2CCC(c3ccc(F)cc3)CC2)cnc(S(=O)(=O)O)c1Cl` [Compound 24, 3-chloro-4-(4-fluoro-2-methylphenylamino)-5-[4-(4-fluorophenyl)piperidine-1-carbonyl]pyridine-2-sulfonic acid], with at least 50%.
